# According to patent US20190030114A1, “ISOFORM-SPECIFIC CALPAIN INHIBITORS, METHODS OF IDENTIFICATION, AND USES THEREOF” (WESTERN UNIVERSITY OF HEALTH SCIENCES, priority 2014, published 2019):
# Like-named read-outs stand apart in the source and are kept apart here.
# How the values were obtained:
# [1] = system: cultured cortical neurons; assay: Bic- and 4-AP-induced neuroprotection against starvation, Hoechst staining; type: cell-based; conditions: mCalp-I 200 nM
# Source text: Neuronal death was observed and quantified by Hoechst staining. 300-500 neurons were counted for each group in three to 6 independent experiments. *p<0.05; ns, no significant difference; one-way ANOVA followed by Bonferroni test. n=3-6. Error Bar indicates SEM
# Neuronal death was observed and quantified by Hoechst staining. 300-500 neurons were counted for each group in three to 6 independent experiments. *p<0.05; ns, no significant difference; one-way ANOVA followed by Bonferroni test. n=3-6. Error Bar indicates SEM (FIG. 6).
# SBDP = SBDP formation in IPL after acute IOP elevation, intravitreal C2l in calpain-1 KO mice; type: in vivo; conditions: Mus musculus, intravitreal (1 μl) 2 h after IOP elevation, SBDP at 4 h, read-out: apparent IC50, inhibition of SBDP formation in IPL
# Description: We used intravitreal C2l injection in order to locally deliver C2l to retina. First, we tested the delivery efficiency by injecting different doses of C2l intravitreally 2 h after IOP elevation in calpain-1 KO mice and analyzing SBDP levels in IPL at 4 h (FIG. 12A and B). […] In all subsequent experiments, 20 μM (1 μl) was used to examine the neuroprotective effects of intravitreal C2l injection. Eyes were collected 3 days after surgery for H&E staining.
# [2] = system: stratum radiatum of field CA1 in acute rat hippocampal slices; assay: field EPSP recording, TBS-induced LTP in acute rat hippocampal slices; type: cell-based; conditions: for LTP after theta-burst stimulation: 200 nM, preincubation prior to TBS
# Description: Results are expressed as percent of the average values over a 10 min baseline period and are means±S.E.M. of the indicated number of experiments.
# FIG. 3A: Field recording of excitatory postsynaptic potentials (EPSPs) performed in stratum radiatum of field CA1 in acute rat hippocampal slices in the presence or absence of 200 nM of the calpain-2 selective inhibitor, Formula I, (mCalp-I in the drawing). Preincubation with mCalp-I enhances LTP. Results are expressed as percent of the average values over a 10 min baseline period and are means±S.E.M. of the indicated number of experiments.
# Results are expressed as percent of the average values over the 10 min baseline period and are means±S.E.M. of the indicated number of experiments.
# Generic calpain inhibitors block LTP when administered before LTP induction. Field recording of excitatory postsynaptic potentials (EPSPs; FIG. 2) was performed in stratum radiatum of field CA1 in acute rat hippocampal slices.
# A calpain 2-selective inhibitor enhances LTP. […]
# calpain-2 = target: T1, calpain-2 (Homo sapiens, UniProt P17655); assay: in vitro calpain-2 inhibition, succinic-Leu-Tyr-AMC substrate; type: biochemical
# T1 sequence (P17655 1-700): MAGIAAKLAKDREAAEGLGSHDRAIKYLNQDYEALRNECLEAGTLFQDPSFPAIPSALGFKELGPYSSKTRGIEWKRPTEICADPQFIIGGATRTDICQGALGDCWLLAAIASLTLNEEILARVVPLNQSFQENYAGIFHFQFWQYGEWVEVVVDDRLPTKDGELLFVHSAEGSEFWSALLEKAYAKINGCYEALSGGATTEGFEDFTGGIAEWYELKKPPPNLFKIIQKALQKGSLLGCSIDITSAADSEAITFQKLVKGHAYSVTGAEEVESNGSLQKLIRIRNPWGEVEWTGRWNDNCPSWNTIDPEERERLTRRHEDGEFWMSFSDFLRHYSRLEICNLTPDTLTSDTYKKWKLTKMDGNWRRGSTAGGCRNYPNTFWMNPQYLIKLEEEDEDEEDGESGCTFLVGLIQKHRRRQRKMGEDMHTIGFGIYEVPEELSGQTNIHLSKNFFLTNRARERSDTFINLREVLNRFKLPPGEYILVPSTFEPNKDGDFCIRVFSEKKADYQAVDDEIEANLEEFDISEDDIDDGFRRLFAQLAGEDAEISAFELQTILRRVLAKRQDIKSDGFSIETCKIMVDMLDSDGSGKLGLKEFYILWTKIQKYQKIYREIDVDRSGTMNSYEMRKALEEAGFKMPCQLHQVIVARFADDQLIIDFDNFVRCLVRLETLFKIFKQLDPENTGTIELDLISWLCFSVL
# T1 sequence (P04632 1-268 partner): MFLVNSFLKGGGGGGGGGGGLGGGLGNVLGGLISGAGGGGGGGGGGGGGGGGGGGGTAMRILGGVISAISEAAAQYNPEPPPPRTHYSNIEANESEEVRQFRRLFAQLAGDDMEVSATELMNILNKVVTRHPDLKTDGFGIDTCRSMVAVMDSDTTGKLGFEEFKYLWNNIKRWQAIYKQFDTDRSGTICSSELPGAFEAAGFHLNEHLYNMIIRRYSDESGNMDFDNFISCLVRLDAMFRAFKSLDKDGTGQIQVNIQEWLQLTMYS
# Description: Formula 1, where chiral center 1 is the L-form and chiral center 2 is a racemic mixture of D- and L- in this example was introduced at various concentrations (from 1 nM to 10 μM) into an in vitro mix comprising succinic-Leu-Tyr-AMC and calpain-1 or calpain-2 (Sasaki et al, 1984), and the kinetics of the loss of fluorescence were determined for each of the calpains (Powers et al, 2000). […] Therefore, the assessment of selectivity described herein was different than the prior teaching.
# Formula 1A, where chiral center 1 is the S-form and chiral center 2 is the S-form was separated from the S-R-form (Formula 1B) using methods that are well-known methods for separating diastereoisomers. Formula 1A, which is also referred to herein as compound 18A, in this example was introduced at various concentrations into an in vitro mix comprising succinic-Leu-Tyr-AMC and μ-calpain or m-calpain (Sasaki et al, 1984), and the kinetics of the loss of fluorescence were determined for each of the calpains.
structure (smiles),measurement,setting,value
"CCC(NC(=O)C(CC(C)C)NC(=O)OCc1ccccc1)C(=O)C(=O)NCc1cc(OC)cc(OC)c1 (racemic) [Formula 1, Z-Leu-Abu-CONH—CH2-C6H3 (3, 5-(OMe)2)]",blocked Bic- and 4-AP-induced neuroprotection against starvation,[1],not
same,IC50,SBDP,8000 nM
same,LTP after theta-burst stimulation,[2],enhances it
same,LTP after theta-burst stimulation,[2]; listed as mCalp-I,enhances LTP
same,LTP during the consolidation phase,[2]; applied from 10 min post TBS to 1 hour post TBS,enhanced LTP
same,Ratio KiCalpain-1/KiCalpain-2,calpain-2,31.1
same,Ki,"calpain-2; Example 1, chiral center 2 racemic, read-out: Ki for calpain-2, determined herein",25 nM
same,Ki,"calpain-2; Example 13, n = 3-4, read-out: Ki Calpain-2",21.3 nM
same,IC50,calpain-2; n = 3-4,210 nM
